# Data: patent US12507703B2, “Methods, devices and compositions for preserving human milk” (The Trustees of Princeton University, priority 2023, dated 2025)
# “And” between values parts separate entries of the source, which are not always exact repeats. Equal entries are not always repeated. Structures can show the parent of a compound that is named as a salt. Where a SMILES comes first, the peptide text is derived from it.
# Test system: lipase
# Experiment: Lipase/lipolysis assay (EnzChek Lipase Substrate, quenched BODIPY-fatty acid conjugate) on stored human milk; further: test concentration or dose not given here
row,Compound,Lipase (RFU)
1,C=C1[C@H]2CC[C@@H]3[C@H]2C(C)(C)CCC[C@]13C [(+)-Longifolene],1228.195 RFU
2,Cl.Cl.NCCc1c[nH]cn1 [Histamine (dihydrochloride)],1022.007 RFU
3,"CCSCCC(N)C(=O)O (racemic) [D,L-Ethionine]",921.5463 RFU
4,COc1ccc(-c2cc(=O)c3c(O)c(OC)c(OC)c(OC)c3o2)cc1OC [Compound 5-O-Demethylnobiletin],860.071 RFU
5,CC(C(=O)O)C(=O)O [Methylmalonic acid],883.2913 RFU
6,Oc1cc(O)c2c(c1)O[C@H](c1ccc(O)c(O)c1)[C@H](O)C2 [(−)-Epicatechin],927.1089 RFU
7,COc1cc(-c2cc(=O)c3c(O)c(OC)c(O)cc3o2)ccc1O [Jaceosidin],614.7008 RFU
8,CCCCCCCCO [Compound 1-Octanol],882.5398 RFU
9,COc1cccc(C=O)c1 [m-Anisaldehyde],1038.646 RFU
10,Lignin,849.2641 RFU
11,CC(C)[C@@H](C)/C=C/[C@@H](C)[C@H]1CC[C@H]2[C@@H]3CC=C4C[C@@H](O)CC[C@]4(C)[C@H]3CC[C@]12C [Brassicasterol],931.4963 RFU
12,OC[C@H]1O[C@H](OC[C@H]2O[C@H](OC[C@H]3O[C@H](O[C@]4(CO)O[C@H](CO)[C@@H](O)[C@@H]4O)[C@H](O)[C@@H](O)[C@@H]3O)[C@H](O)[C@@H](O)[C@H]2O)[C@H](O)[C@@H](O)[C@H]1O [Stachyose],882.4617 RFU
13,Curdlan,876.416 RFU
14,Theaflavin-3′-gallate,780.4384 RFU
15,Oc1cc(O)c2c(c1)O[C@@]1(c3ccc(O)c(O)c3)Oc3cc(O)c4c(c3[C@@H]2[C@H]1O)O[C@H](c1ccc(O)c(O)c1)[C@H](O)[C@H]4c1c(O)cc(O)c2c1O[C@H](c1ccc(O)c(O)c1)[C@H](O)C2 [Cinnamtannin B-1],1061.374 RFU
16,COc1cc2oc3cc(O)c(OC)c(CC=C(C)C)c3c(=O)c2c(O)c1CC=C(C)C [beta-Mangostin],828.6091 RFU
17,Cc1cccc(C=O)c1 [m-Tolualdehyde],859.0901 RFU
18,CC(C)[C@H](C)[C@@H](O)[C@H](O)[C@@H](C)[C@H]1CC[C@H]2[C@@H]3COC(=O)[C@H]4C[C@H](O)[C@H](O)C[C@]4(C)[C@H]3CC[C@]12C [Brassinolide],945.8414 RFU
19,NCC(=O)N[C@@H](CC(=O)O)C(=O)O [Glycyl-L-Aspartic] (H-Gly-Asp-OH),903.5873 RFU
20,"β Glucan - 1,3/1,6",942.984 RFU
21,COc1cc([C@@H]2Oc3c(O)cc([C@H]4Oc5cc(O)cc(O)c5C(=O)[C@@H]4O)cc3[C@H]2CO)ccc1O [Silychristin],921.666 RFU

row,Compound,Lipase (RFU)
1,O=P(O)(O)O[C@H]1O[C@H](CO)[C@@H](O)[C@H](O)[C@H]1O [D-Glucose-1-Phosphate],853.7765 RFU and 929.0604 RFU
2,CCOC(=O)c1ccc(O)c(OC)c1 [Ethyl Vanillate],981.4431 RFU
3,O=C(O)[C@@H]1C[C@@H](O)CN1 [trans-4-Hydroxy L-Proline],608.0856 RFU
4,"Cc1nc2ccccc2o1 [Compound 2-Methylbenzoxazole, 2-Methylbenzoxazole]",887.776 RFU
5,O=C(O)[C@H](O)[C@@H](O)[C@H](O)[C@H](O)CO[C@H]1O[C@H](CO)[C@H](O)[C@H](O)[C@H]1O [Melibionic Acid],917.5297 RFU
6,COc1cc2ccc(=O)oc2c(OC)c1O [Isofraxidin],929.2612 RFU
7,CC(C)[C@@H]1CC[C@H](C)CC1=O [(+)-Isomenthone],807.8808 RFU
8,CC1(C)CCC[C@]2(C)[C@H]3CC(=O)O[C@]3(C)CC[C@@H]12 [Sclareolide],845.6458 RFU
9,Xanthan gum,873.106 RFU
10,C[C@@H]1O[C@@H](O[C@@H]2[C@@H](O)[C@H](O)[C@@H](CO)O[C@H]2c2c(O)cc(O)c3c(=O)cc(-c4ccc(O)cc4)oc23)[C@H](O)[C@H](O)[C@H]1O [Vitexin-2″-O-rhamnoside],747.1181 RFU
11,CC(C)=CCC[C@](C)(O[C@@H]1O[C@H](CO[C@@H]2OC[C@H](O)[C@H](O)[C@H]2O)[C@@H](O)[C@H](O)[C@H]1O)[C@H]1CC[C@]2(C)[C@@H]1[C@H](O)C[C@@H]1[C@@]3(C)CC[C@H](O)C(C)(C)[C@@H]3[C@@H](O)C[C@]12C [Ginsenoside F3],878.0505 RFU
12,O=S(=O)(O)SSS(=O)(=O)O [Tetrathionate],924.2846 RFU
13,COc1ccc(C[C@H]2COC(=O)[C@]2(O)Cc2ccc(O[C@@H]3O[C@H](CO)[C@@H](O)[C@H](O)[C@H]3O)c(OC)c2)cc1OC [Tracheloside],940.7065 RFU
14,"C[C@H](O)CO [(S)-(+)-1,2-Propanediol]",1392.598 RFU
15,COc1ccc(-c2oc3c(OC)c(O)cc(O)c3c(=O)c2O)cc1 [Prudomestin],894.1495 RFU
16,O=C1c2ccc(O)cc2OCC1c1ccc(O)cc1 (stereo not drawn) [Dihydrodaidzein],682.5875 RFU
17,O=c1cc(-c2ccc(O)c(O)c2)oc2cc(O[C@@H]3O[C@H](CO)[C@@H](O)[C@H](O)[C@H]3O)c(O)c(O)c12 [6-Hydroxyluteolin 7-glucoside],1135.118 RFU
18,COc1c(O)cc2oc(-c3ccc(O)cc3)cc(=O)c2c1O [Hispidulin],914.8964 RFU
19,CCCCCCCCCCCCCC(=O)OC[C@H](COP(=O)(O)OCCN)OC(=O)CCCCCCCCCCCCC,805.4396 RFU
20,Nc1nc2nc[nH]c2c(=O)[nH]1 [Guanine],909.1174 RFU
21,Nc1nc2c(ncn2[C@H]2C[C@H](O)[C@@H](CO)O2)c(=O)[nH]1.O [2′-Deoxyguanosine monohydrate],782.4513 RFU

row,Compound,Lipase (RFU)
1,C[C@H](CCC(=O)O)[C@H]1CC[C@H]2[C@@H]3[C@H](O)C[C@H]4C[C@H](O)CC[C@]4(C)[C@H]3C[C@H](O)[C@]12C [Allocholic acid],1000.774 RFU
2,COc1cc(O)c2c(=O)cc(-c3ccccc3)oc2c1 [Tectochrysin],890.4365 RFU
3,CC[C@H]1OC(=O)C[C@@H](O)[C@H](C)[C@@H](O[C@@H]2O[C@H](C)[C@@H](O[C@H]3C[C@@](C)(O)[C@@H](O)[C@H](C)O3)[C@H](N(C)C)[C@H]2O)[C@@H](CC=O)C[C@@H](C)C(=O)/C=C/C(C)=C/[C@@H]1CO[C@@H]1O[C@H](C)[C@@H](O)[C@@H](OC)[C@H]1OC.O=C(O)C(O)C(O)C(=O)O [Tylosin (tartrate)],942.0391 RFU
4,"Cl.Cl.NCCCCN [1,4-Diaminobutane (dihydrochloride)]",865.534 RFU
5,COc1cc2c(cc1O)C[C@@H]1NCCc3cc(OC)c(O)c-2c31 [Norisoboldine],812.7907 RFU
6,COc1ccc(CC(=O)O)cc1O [Isohomovanillic acid],1060.172 RFU
7,"COC1=CC(=O)OC(/C=C/c2ccccc2)C1 (single isomer, unassigned; (+)) [(+)-Kavain]",895.974 RFU
8,Riboflavin (phosphate sodium),760.1592 RFU
9,CC(C)CCC[C@@H](C)[C@H]1CC[C@H]2C3=CC[C@H]4C[C@@H](O)CC[C@]4(C)[C@H]3CC[C@]12C [Lathosterol],1017.106 RFU
10,OC[C@H]1O[C@@H](Oc2cc3c(O)cc(O)cc3[o+]c2-c2ccc(O)c(O)c2)[C@H](O)[C@@H](O)[C@@H]1O.[Cl-] [Kuromanin (chloride)],1192.7 RFU
11,CCCCCCO [Compound 1-Hexanol],1054.453 RFU and 1051.532 RFU
12,COc1cc([C@H]2c3cc(O)c(OC)cc3C[C@@H](C)[C@@H]2C)ccc1O [Guaiacin],808.3575 RFU
13,C[C@@H]1O[C@@H](OC[C@H]2O[C@@H](Oc3c(-c4ccc(O)cc4)oc4cc(O)cc(O)c4c3=O)[C@H](O)[C@@H](O)[C@@H]2O)[C@H](O)[C@H](O)[C@H]1O [Nicotiflorin],810.1075 RFU
14,C[C@H](CCC(=O)NCCS(=O)(=O)O)[C@H]1CC[C@H]2[C@@H]3[C@H](O)C[C@@H]4C[C@H](O)CC[C@]4(C)[C@H]3C[C@H](O)[C@]12C [Taurocholic acid (sodium salt hydrate)],1148.675 RFU
15,CC(=O)NCCCC[C@H](N)C(=O)O [Nepsilon-Acetyl-L-lysine],1188.891 RFU
16,O.O.O.O.OC[C@H]1O[C@H](OC[C@H]2O[C@H](OC[C@H]3O[C@H](O[C@]4(CO)O[C@H](CO)[C@@H](O)[C@@H]4O)[C@H](O)[C@@H](O)[C@@H]3O)[C@H](O)[C@@H](O)[C@H]2O)[C@H](O)[C@@H](O)[C@H]1O [Stachyose (tetrahydrate)],648.6527 RFU
17,Oc1cc(O)c2c(c1)O[C@H](c1cc(O)c(O)c(O)c1)[C@@H](O)C2 [(+)-Gallocatechin],1096.904 RFU
18,O=C(O)c1cc(O)c2c(c1)C(=O)c1cccc(O[C@@H]3O[C@H](CO)[C@@H](O)[C@H](O)[C@H]3O)c1C2=O [Rhein 8-Glucoside],942.9082 RFU
19,COc1ccc(-c2cc(=O)c3c(OC)c(OC)c(OC)c(OC)c3o2)cc1O [3′-Demethylnobiletin],794.5882 RFU
20,(−)-Epigallocatechin,928.0708 RFU
21,NC(=O)c1ccc[n+]([C@@H]2O[C@H](COP(=O)([O-])OP(=O)(O)OC[C@H]3O[C@@H](n4cnc5c(N)ncnc54)[C@H](O)[C@@H]3O)[C@@H](O)[C@H]2O)c1 [NAD+],662.6014 RFU
